In the supplement of paper PMC10307832:

What was measured:
Assay in all cases: relative viability (nuclei count vs DMSO), 5 days (fraction); higher = more cells survive
Doramapimod + Crizotinib = compound: Cc1ccc(-n2nc(C(C)(C)C)cc2NC(=O)Nc2ccc(OCCN3CCOCC3)c3ccccc23)cc1 [Doramapimod] + C[C@@H](Oc1cc(-c2cnn(C3CCNCC3)c2)cnc1N)c1c(Cl)ccc(F)c1Cl [Crizotinib] (partner 1 µM)
Procedure, shortened: (§1)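 Medians of duplicate plates are given as relative viability. That measure is the nuclei count in treated wells divided by the count in vehicle wells. Counts were taken on 4× images of lung cancer cell lines in 1536-well plates, 5 days after pin-tool dosing the day after seeding with one drug alone or a fixed anchor-drug dose plus five library-drug doses (not always all listed) in √10 steps.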

IPA-3 + Phenformin = compound: C1=CC=C2C(=C1)C=CC(=C2SSC3=C(C=CC4=CC=CC=C43)O)O [IPA-3] + N=C(N)NC(=N)NCCc1ccccc1 [Phenformin] (partner 250 µM)
Procedure, shortened: as §1

RAF265 + Bortezomib = compound: Cn1c(Nc2ccc(C(F)(F)F)cc2)nc2cc(Oc3ccnc(-c4ncc(C(F)(F)F)[nH]4)c3)ccc21 [RAF265] + CC(C)C[C@H](NC(=O)[C@H](Cc1ccccc1)NC(=O)c1cnccn1)B(O)O [Bortezomib] (partner 0.002 µM)
Procedure, shortened: as §1

IPA-3 + Palbociclib = compound: C1=CC=C2C(=C1)C=CC(=C2SSC3=C(C=CC4=CC=CC=C43)O)O [IPA-3] + CC(=O)c1c(C)c2cnc(Nc3ccc(N4CCNCC4)cn3)nc2n(C2CCCC2)c1=O [Palbociclib] (partner 0.5 µM)
Procedure, shortened: as §1

| Cell Line | relative viability (Doramapimod + Crizotinib; first compound 0.02 µM) | relative viability (Doramapimod + Crizotinib; first compound 0.06325 µM) | relative viability (Doramapimod + Crizotinib; first compound 0.2 µM) | relative viability (Doramapimod + Crizotinib; first compound 0.6325 µM) | relative viability (Doramapimod + Crizotinib; first compound 2 µM) | relative viability (IPA-3 + Phenformin; first compound 0.2 µM) | relative viability (IPA-3 + Phenformin; first compound 0.6325 µM) | relative viability (IPA-3 + Phenformin; first compound 2 µM) | relative viability (IPA-3 + Phenformin; first compound 6.325 µM) | relative viability (IPA-3 + Phenformin; first compound 20 µM) | relative viability (RAF265 + Bortezomib; first compound 0.01 µM) | relative viability (RAF265 + Bortezomib; first compound 0.03162 µM) | relative viability (RAF265 + Bortezomib; first compound 0.1 µM) | relative viability (RAF265 + Bortezomib; first compound 0.3162 µM) | relative viability (RAF265 + Bortezomib; first compound 1 µM) | relative viability (IPA-3 + Palbociclib; first compound 0.2 µM) | relative viability (IPA-3 + Palbociclib; first compound 0.6325 µM) | relative viability (IPA-3 + Palbociclib; first compound 2 µM) | relative viability (IPA-3 + Palbociclib; first compound 6.325 µM) | relative viability (IPA-3 + Palbociclib; first compound 20 µM) |
| --- | --- | --- | --- | --- | --- | --- | --- | --- | --- | --- | --- | --- | --- | --- | --- | --- | --- | --- | --- | --- |
| NCI-H2023 | 0.695 | 0.629 | 0.575 | 0.666 | 0.625 | 0.51 | 0.403 | 0.496 | 0.409 | 0.436 | 1.07 | 1.08 | 1.07 | 0.786 | 0.794 | 0.441 | 0.347 | 0.414 | 0.442 | 0.41 |
| LC-2-ad | 0.531 | 0.451 | 0.448 | 0.435 | 0.385 | 0.605 | 0.566 | 0.556 | 0.595 | 0.666 | 0.959 | 0.998 | 0.927 | 0.668 | 0.452 | 0.545 | 0.495 | 0.479 | 0.451 | 0.518 |
| NCI-H1666 | 1.21 | 0.907 | 0.959 | 1.08 | 0.935 | 0.654 | 0.552 | 0.547 | 1.04 | 0.469 | 1.09 | 0.809 | 0.935 | 0.977 | 0.595 | 0.643 | 0.672 | 0.624 | 0.616 | 0.658 |
| 201T | 1.03 | 1.06 | 0.993 | 1.09 | 1.01 | 0.452 | 0.454 | 0.484 | 0.461 | 0.469 | 1.08 | 1.1 | 1.07 | 1.11 | 1.1 | 0.363 | 0.38 | 0.391 | 0.342 | 0.388 |
| NCI-H2009 | 1.04 | 1.2 | 1.18 | 1.08 | 0.988 | 0.539 | 0.477 | 0.495 | 0.445 | 0.387 | 1.05 | 0.981 | 0.905 | 0.899 | 0.657 | 0.203 | 0.202 | 0.2 | 0.231 | 0.151 |
| NCI-H2228 | 0.465 | 0.385 | 0.425 | 0.546 | 0.44 | 0.556 | 0.31 | 0.336 | 0.377 | 0.284 | 0.968 | 0.82 | 0.887 | 0.412 | 0.42 | 0.825 | 0.71 | 0.474 | 1 | 0.752 |
| LU99A | 0.562 | 0.541 | 0.533 | 0.585 | 0.442 | 0.883 | 0.764 | 0.858 | 0.933 | 0.799 | 1.18 | 1.11 | 0.697 | 0.605 | 0.409 | 0.437 | 0.376 | 0.425 | 0.452 | 0.394 |
| NCI-H1437 | 0.897 | 0.943 | 0.868 | 1 | 0.915 | 0.41 | 0.294 | 0.328 | 0.394 | 0.304 | 0.541 | 0.528 | 0.419 | 0.56 | 0.343 | 0.409 | 0.359 | 0.317 | 0.291 | 0.285 |
